Values quoted from earlier work as cited in EP2637695B1, “OLMESARTAN FORMULATIONS” (Abdi Ibrahim Ilac Sanayi ve Ticaret Anonim Sirketi, priority 2010, dated 2012).
Read-outs that look alike come from different tables or passages of the source.

How the values were obtained:
[1] = in humans

SMILES: CCCc1nc(C(C)(C)O)c(C(=O)OCc2oc(=O)oc2C)n1Cc1ccc(-c2ccccc2-c2nnn[nH]2)cc1 [Olmesartan medoxomil, (5-methyl-2-oxo-1,3-dioxolen-4-yl)rnethyl 4-(1-hydroxy-1-methylethyl)-2-propyl-1-{4-[2-(tetrazol-5-yl)phenyl]phenyl}methylimidazole-5-carboxylate]
- solubility (in 17 hydrochloric acid): insoluble
- solubility (in strong acid): sparingly soluble
- solubility (in strong base): soluble
- solubility (in water and in the pH range of 3 to 9): practically insoluble
- bioavailability (BA) [1]: approximately 26%
